Data taken from ChEMBL document CHEMBL1275354, “Anticonvulsant activity of 2,4(1H)-diarylimidazoles in mice and rats acute seizure models” (Bioorg Med Chem, 2010).
Calls of active or inactive are those of the source. No cut-off for these calls is given here.

What was measured:
[1] = test system: Mus musculus; assay: Neurotoxicity in albino CF1 mouse assessed as minimal motor impairment at 70 mg/kg, ip after 0.25 hrs by rotarod test; format: toxicity, organism-based; set-up: dose 70 mg/kg, route intraperitoneal; details: in vivo
[2] = test system: Mus musculus; assay: Neurotoxicity in albino CF1 mouse assessed as minimal motor impairment at 300 mg/kg, ip after 0.5 hrs by rotarod test; format: toxicity, organism-based; set-up: dose 300 mg/kg, route intraperitoneal; details: in vivo
[3] = test system: Mus musculus; assay: Anticonvulsant activity against subcutaneous metrazole-induced seizures in ip dosed albino CF1 mouse assessed as minimum effective dose after 4 hrs; format: functional; details: albino CF1, 4 h, read-out: MED
[4] = test system: Mus musculus; assay: Anticonvulsant activity in albino CF1 mouse assessed as protection against subcutaneous metrazole-induced seizures at 100 mg/kg, ip after 0.5 hrs; format: functional, organism-based; set-up: dose 100 mg/kg
[5] = test system: Mus musculus; assay: Anticonvulsant activity in albino CF1 mouse assessed as protection against maximal electroshock-induced seizures at 30 mg/kg, ip after 4 hrs; format: functional, organism-based; set-up: dose 30 mg/kg
[6] = test system: Rattus norvegicus; assay: Neurotoxicity in albino Sprague-Dawley rat assessed as minimal motor impairment at 30 mg/kg, po by rotarod test; format: toxicity, organism-based; set-up: dose 30 mg/kg, route oral; details: in vivo
[7] = test system: Mus musculus; assay: Neurotoxicity in albino CF1 mouse assessed as minimal motor impairment at 30 mg/kg, ip after 0.5 hrs by rotarod test; format: toxicity, organism-based; set-up: dose 30 mg/kg, route intraperitoneal; details: in vivo
[8] = test system: Mus musculus; assay: Anticonvulsant activity in albino CF1 mouse assessed as protection against maximal electroshock-induced seizures at 70 mg/kg, ip after 0.25 hrs; format: functional, organism-based; set-up: dose 70 mg/kg
[9] = test system: Mus musculus; assay: Anticonvulsant activity in albino CF1 mouse assessed as protection against maximal electroshock-induced seizures at 100 mg/kg, ip after 0.5 hrs; format: functional, organism-based; set-up: dose 100 mg/kg
[10] = test system: Mus musculus; assay: Anticonvulsant activity ip dosed albino CF1 mouse assessed as protection against maximal electroshock-induced seizures after 0.25 hrs; format: functional
[11] = test system: Mus musculus; assay: Neurotoxicity in albino CF1 mouse assessed as minimal motor impairment at 100 mg/kg, ip after 0.5 hrs by rotarod test; format: toxicity, organism-based; set-up: dose 100 mg/kg, route intraperitoneal; details: in vivo
[12] = test system: Mus musculus; assay: Anticonvulsant activity against subcutaneous metrazole-induced seizures in ip dosed albino CF1 mouse assessed as minimum effective dose after 0.5 hrs; format: functional; details: albino CF1, 0.5 h, read-out: MED
[13] = test system: Rattus norvegicus; assay: Anticonvulsant activity in albino Sprague-Dawley rat assessed as protection against maximal electroshock-induced seizures at 30 mg/kg, po after 2 hrs; format: functional, organism-based; set-up: dose 30 mg/kg
[14] = test system: Mus musculus; assay: Anticonvulsant activity in albino CF1 mouse assessed as protection against subcutaneous metrazole-induced seizures at 300 mg/kg, ip after 0.5 hrs; format: functional, organism-based; set-up: dose 300 mg/kg
[15] = test system: Mus musculus; assay: Neurotoxicity in albino CF1 mouse assessed as minimal motor impairment at 30 to 300 mg/kg, po after 4 hrs by rotarod test; format: toxicity, organism-based; set-up: dose 30-300 mg/kg, route oral; details: in vivo
[16] = test system: Mus musculus; assay: Protective index, ratio of TD50 for albino CF1 mouse by rotarod test to ED50 for albino CF1 mouse by subcutaneous metrazol seizures test; format: functional
[17] = test system: Mus musculus; assay: Anticonvulsant activity in albino CF1 mouse assessed as protection against subcutaneous metrazole-induced seizures at 100 mg/kg, ip after 4 hrs; format: functional, organism-based; set-up: dose 100 mg/kg
[18] = test system: Mus musculus; assay: Anticonvulsant activity in albino CF1 mouse assessed as protection against maximal electroshock-induced seizures at 35 mg/kg, ip after 0.25 hrs; format: functional, organism-based; set-up: dose 35 mg/kg
[19] = test system: Mus musculus; assay: Neurotoxicity in albino CF1 mouse assessed as minimal motor impairment at 30 mg/kg, ip after 4 hrs by rotarod test; format: toxicity, organism-based; set-up: dose 30 mg/kg, route intraperitoneal; details: in vivo
[20] = test system: Mus musculus; assay: Neurotoxicity in albino CF1 mouse assessed as minimal motor impairment at 350 mg/kg, ip after 0.25 hrs by rotarod test; format: toxicity, organism-based; set-up: dose 350 mg/kg, route intraperitoneal; details: in vivo
[21] = test system: Mus musculus; assay: Anticonvulsant activity in albino CF1 mouse assessed as protection against subcutaneous metrazole-induced seizures at 30 mg/kg, ip after 0.5 hrs; format: functional, organism-based; set-up: dose 30 mg/kg
[22] = test system: Rattus norvegicus; assay: Anticonvulsant activity in albino Sprague-Dawley rat assessed as protection against maximal electroshock-induced seizures at 30 mg/kg, po after 0.25 hrs; format: functional, organism-based; set-up: dose 30 mg/kg
[23] = test system: Mus musculus; assay: Neurotoxicity in ip dosed albino CF1 mouse assessed as minimum dose required to cause toxicity after 4 hrs by rotarod test; format: organism-based; details: in vivo
[24] = test system: Mus musculus; assay: Neurotoxicity in ip dosed albino CF1 mouse assessed as minimum dose required to cause toxicity after 0.5 hrs by rotarod test; format: organism-based; details: in vivo
[25] = test system: Mus musculus; assay: Anticonvulsant activity in albino CF1 mouse assessed as protection against maximal electroshock-induced seizures at 30 mg/kg, ip after 0.5 hrs; format: functional, organism-based; set-up: dose 30 mg/kg
[26] = organism: Mus musculus; assay: Protective index, ratio of TD50 for albino CF1 mouse by rotarod test to ED50 for albino CF1 mouse by maximal electroshock seizures test; format: functional
[27] = test system: Mus musculus; assay: Anticonvulsant activity against maximal electroshock-induced seizures in ip dosed albino CF1 mouse assessed as minimum effective dose after 0.5 hrs; format: functional; details: read-out: MED
[28] = test system: Mus musculus; assay: Anticonvulsant activity in albino CF1 mouse assessed as protection against subcutaneous metrazole-induced seizures at 70 mg/kg, ip after 0.25 hrs; format: functional, organism-based; set-up: dose 70 mg/kg
[29] = test system: Rattus norvegicus; assay: Anticonvulsant activity in albino Sprague-Dawley rat assessed as protection against maximal electroshock-induced seizures at 30 mg/kg, po after 0.5 hrs; format: functional, organism-based; set-up: dose 30 mg/kg
[30] = test system: Rattus norvegicus; assay: Anticonvulsant activity in albino Sprague-Dawley rat assessed as protection against maximal electroshock-induced seizures at 30 mg/kg, po after 4 hrs; format: functional, organism-based; set-up: dose 30 mg/kg
[31] = test system: Mus musculus; assay: Anticonvulsant activity in albino CF1 mouse assessed as protection against subcutaneous metrazole-induced seizures at 30 mg/kg, ip after 4 hrs; format: functional, organism-based; set-up: dose 30 mg/kg
[32] = molecular target: Sodium channel protein type 2 subunit alpha (Homo sapiens, UniProt Q99250); assay: Inhibition of human NaV1.2 expressed in HEK cells at -60 mV holding potential by patch clamp recording technique; format: cell-based, HEK293
[33] = test system: Mus musculus; assay: Anticonvulsant activity in albino CF1 mouse assessed as protection against maximal electroshock-induced seizures at 300 mg/kg, ip after 0.5 hrs; format: functional, organism-based; set-up: dose 300 mg/kg
[34] = test system: Mus musculus; assay: Neurotoxicity in albino CF1 mouse assessed as minimal motor impairment at 30 to 300 mg/kg, ip after 0.5 hrs by rotarod test; details: in vivo
[35] = test system: Mus musculus; assay: Neurotoxicity in albino CF1 mouse assessed as minimal motor impairment at 300 mg/kg, ip after 4 hrs by rotarod test; format: toxicity, organism-based; set-up: dose 300 mg/kg, route intraperitoneal; details: in vivo
[36] = test system: Mus musculus; assay: Anticonvulsant activity in albino CF1 mouse assessed as protection against maximal electroshock-induced seizures at 300 mg/kg, ip after 4 hrs; format: functional, organism-based; set-up: dose 300 mg/kg
[37] = test system: Mus musculus; assay: Anticonvulsant activity ip dosed albino CF1 mouse assessed as protection against subcutaneous metrazole-induced seizures after 0.25 hrs; format: functional; details: albino CF1, 0.25 h
[38] = test system: Mus musculus; assay: Anticonvulsant activity against maximal electroshock-induced seizures in ip dosed albino CF1 mouse assessed as minimum effective dose after 4 hrs; format: functional; details: read-out: MED
[39] = test system: Mus musculus; assay: Anticonvulsant activity in albino CF1 mouse assessed as protection against subcutaneous metrazole-induced seizures at 300 mg/kg, ip after 4 hrs; format: functional, organism-based; set-up: dose 300 mg/kg
[40] = test system: Mus musculus; assay: Neurotoxicity in ip dosed albino CF1 mouse assessed as minimal motor impairment after 0.25 hrs by rotarod test; format: toxicity, organism-based; details: in vivo
[41] = test system: Mus musculus; assay: Neurotoxicity in albino CF1 mouse assessed as minimal motor impairment at 100 mg/kg, ip after 4 hrs by rotarod test; format: toxicity, organism-based; set-up: dose 100 mg/kg, route intraperitoneal; details: in vivo

Sodium channel protein type 2 subunit alpha, sequence (Q99250 whole entry): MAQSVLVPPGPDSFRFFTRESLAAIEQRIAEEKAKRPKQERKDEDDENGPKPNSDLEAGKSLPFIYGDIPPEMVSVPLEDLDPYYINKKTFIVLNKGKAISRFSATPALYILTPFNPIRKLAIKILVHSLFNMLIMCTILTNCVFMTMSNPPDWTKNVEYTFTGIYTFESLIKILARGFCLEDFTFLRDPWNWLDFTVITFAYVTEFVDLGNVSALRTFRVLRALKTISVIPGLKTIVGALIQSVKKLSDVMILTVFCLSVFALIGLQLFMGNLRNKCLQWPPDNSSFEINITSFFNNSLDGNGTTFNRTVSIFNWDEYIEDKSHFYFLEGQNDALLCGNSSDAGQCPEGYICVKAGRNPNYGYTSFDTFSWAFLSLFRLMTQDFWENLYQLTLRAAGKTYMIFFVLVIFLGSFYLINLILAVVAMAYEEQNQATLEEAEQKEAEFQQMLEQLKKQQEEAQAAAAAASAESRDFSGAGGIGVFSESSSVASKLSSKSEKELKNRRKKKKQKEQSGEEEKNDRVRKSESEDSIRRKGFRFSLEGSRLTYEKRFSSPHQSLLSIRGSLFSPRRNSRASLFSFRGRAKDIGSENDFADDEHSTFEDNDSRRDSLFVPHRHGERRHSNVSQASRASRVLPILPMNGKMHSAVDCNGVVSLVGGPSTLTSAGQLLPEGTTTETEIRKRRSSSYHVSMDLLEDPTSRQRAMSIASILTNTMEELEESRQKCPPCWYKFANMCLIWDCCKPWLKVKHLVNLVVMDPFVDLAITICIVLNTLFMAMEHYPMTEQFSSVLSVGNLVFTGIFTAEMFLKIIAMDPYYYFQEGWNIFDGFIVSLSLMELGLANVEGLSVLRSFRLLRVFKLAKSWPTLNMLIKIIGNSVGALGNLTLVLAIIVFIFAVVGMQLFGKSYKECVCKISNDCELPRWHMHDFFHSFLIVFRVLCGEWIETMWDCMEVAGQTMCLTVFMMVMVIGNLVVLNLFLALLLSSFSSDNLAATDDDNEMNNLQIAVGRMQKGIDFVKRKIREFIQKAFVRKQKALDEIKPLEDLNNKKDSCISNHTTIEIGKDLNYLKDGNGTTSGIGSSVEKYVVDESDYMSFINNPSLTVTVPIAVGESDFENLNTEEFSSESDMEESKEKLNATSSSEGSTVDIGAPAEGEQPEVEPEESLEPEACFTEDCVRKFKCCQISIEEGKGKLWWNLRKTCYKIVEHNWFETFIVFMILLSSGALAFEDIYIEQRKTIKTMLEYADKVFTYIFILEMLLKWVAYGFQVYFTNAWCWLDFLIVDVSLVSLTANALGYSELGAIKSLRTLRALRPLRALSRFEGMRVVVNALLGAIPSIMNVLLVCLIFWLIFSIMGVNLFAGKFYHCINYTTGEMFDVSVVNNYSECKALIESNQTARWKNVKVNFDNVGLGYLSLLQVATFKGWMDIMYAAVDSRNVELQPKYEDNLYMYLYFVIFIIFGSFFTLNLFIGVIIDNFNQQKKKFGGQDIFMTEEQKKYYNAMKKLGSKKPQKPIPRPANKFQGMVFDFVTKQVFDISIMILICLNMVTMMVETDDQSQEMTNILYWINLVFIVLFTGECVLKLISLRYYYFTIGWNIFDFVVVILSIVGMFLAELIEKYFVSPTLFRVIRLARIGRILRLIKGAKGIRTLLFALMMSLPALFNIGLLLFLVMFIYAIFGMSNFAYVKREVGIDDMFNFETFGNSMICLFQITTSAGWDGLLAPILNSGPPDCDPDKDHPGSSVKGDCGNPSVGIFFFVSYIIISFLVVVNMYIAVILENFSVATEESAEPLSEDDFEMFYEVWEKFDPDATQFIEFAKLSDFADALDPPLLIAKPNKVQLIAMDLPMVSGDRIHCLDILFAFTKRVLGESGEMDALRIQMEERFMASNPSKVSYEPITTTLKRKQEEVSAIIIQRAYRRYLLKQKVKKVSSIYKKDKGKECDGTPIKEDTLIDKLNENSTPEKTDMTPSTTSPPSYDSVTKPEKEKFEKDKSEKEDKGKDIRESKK

COc1ccc(-c2nc(-c3ccccc3)c[nH]2)cc1
Activity [1]: Non-toxic
Activity [2]: Toxic
minimal effective dose [3]: > 300 mg/kg
Activity [4]: inactive
Activity [5]: inactive
Activity [6]: Non-toxic
Activity [7]: Non-toxic
Activity [8]: Active
Activity [9]: Active
ED50 [10]: 46.8 mg/kg
Activity [11]: Non-toxic
minimal effective dose [12]: 100 mg/kg
Activity [13]: inactive
Activity [14]: Active
Activity [15]: Non-toxic
PI [16]: 1.4
Activity [17]: inactive
Activity [18]: inactive
Activity [19]: Non-toxic
Activity [20]: Toxic
Activity [21]: inactive
Activity [22]: inactive
MED [23]: 100 mg/kg
MED [24]: 100 mg/kg
Activity [25]: inactive
PI [26]: 4.3
minimal effective dose [27]: > 30 mg/kg
Activity [28]: inactive
Activity [29]: inactive
Activity [30]: inactive
Activity [31]: inactive
IC50 [32]: 21.4 µM
Activity [33]: Active
Activity [34]: Non-toxic
Activity [35]: Toxic
Activity [36]: Active
ED50 [37]: 142 mg/kg
minimal effective dose [38]: 100 mg/kg
Activity [39]: inactive
TD50 [40]: 200.8 mg/kg
Activity [41]: Non-toxic
